Data taken from the NIST ThermoML archive (doi:10.1021/acs.jced.7b00201).

Assay: xn = mol fraction of the nth substance listed
Conditions: 100 kPa, Liquid; for viscosity: Falling or rolling sphere viscometry; for mass density: Vibrating tube method

CCCCC1CCCCC1 [butylcyclohexane] + CCCCCCCCCCCC
Conditions | mass density [kg/m3] | viscosity [mPa·s]
293.15 K, x2 = 0 | 799.34 | 1.305
293.15 K, x2 = 0.1017 | 792.77 | 1.319
293.15 K, x2 = 0.1996 | 786.82 | 1.334
293.15 K, x2 = 0.2951 | 781.36 | 1.348
293.15 K, x2 = 0.4221 | 774.55 | 1.369
293.15 K, x2 = 0.5126 | 769.99 | 1.384
293.15 K, x2 = 0.6256 | 764.59 | 1.404
293.15 K, x2 = 0.7002 | 761.2 | 1.418
293.15 K, x2 = 0.7989 | 756.92 | 1.437
293.15 K, x2 = 0.9012 | 752.7 | 1.457
298.15 K, x2 = 0 | 795.59 | 1.202
298.15 K, x2 = 0.1017 | 789.05 | 1.215
298.15 K, x2 = 0.1996 | 783.12 | 1.228
298.15 K, x2 = 0.2951 | 777.68 | 1.241
298.15 K, x2 = 0.4221 | 770.9 | 1.258
298.15 K, x2 = 0.5126 | 766.35 | 1.272
298.15 K, x2 = 0.6256 | 760.96 | 1.289
298.15 K, x2 = 0.7002 | 757.57 | 1.3
298.15 K, x2 = 0.7989 | 753.3 | 1.318
298.15 K, x2 = 0.9012 | 749.09 | 1.335
303.15 K, x2 = 0 | 791.84 | 1.112
303.15 K, x2 = 0.1017 | 785.32 | 1.123
303.15 K, x2 = 0.1996 | 779.41 | 1.135
303.15 K, x2 = 0.2951 | 773.99 | 1.146
303.15 K, x2 = 0.4221 | 767.22 | 1.162
303.15 K, x2 = 0.5126 | 762.68 | 1.173
303.15 K, x2 = 0.6256 | 757.3 | 1.187
303.15 K, x2 = 0.7002 | 753.92 | 1.197
303.15 K, x2 = 0.7989 | 749.66 | 1.211
303.15 K, x2 = 0.9012 | 745.45 | 1.226
308.15 K, x2 = 0 | 788.07 | 1.033
308.15 K, x2 = 0.1017 | 781.58 | 1.043
308.15 K, x2 = 0.1996 | 775.69 | 1.053
308.15 K, x2 = 0.2951 | 770.28 | 1.063
308.15 K, x2 = 0.4221 | 763.53 | 1.076
308.15 K, x2 = 0.5126 | 759.01 | 1.086
308.15 K, x2 = 0.6256 | 753.64 | 1.1
308.15 K, x2 = 0.7002 | 750.27 | 1.108
308.15 K, x2 = 0.7989 | 746.01 | 1.122
308.15 K, x2 = 0.9012 | 741.81 | 1.137
313.15 K, x2 = 0 | 784.3 | 0.963
313.15 K, x2 = 0.1017 | 777.82 | 0.971
313.15 K, x2 = 0.1996 | 771.96 | 0.98
313.15 K, x2 = 0.2951 | 766.57 | 0.989
313.15 K, x2 = 0.4221 | 759.84 | 1.001
313.15 K, x2 = 0.5126 | 755.32 | 1.009
313.15 K, x2 = 0.6256 | 749.97 | 1.021
313.15 K, x2 = 0.7002 | 746.6 | 1.029
313.15 K, x2 = 0.7989 | 742.35 | 1.041
313.15 K, x2 = 0.9012 | 738.16 | 1.054
318.15 K, x2 = 0 | – | 0.901
318.15 K, x2 = 0.1017 | – | 0.908
318.15 K, x2 = 0.1996 | – | 0.915
318.15 K, x2 = 0.2951 | – | 0.923
318.15 K, x2 = 0.4221 | – | 0.934
318.15 K, x2 = 0.5126 | – | 0.942
318.15 K, x2 = 0.6256 | – | 0.952
318.15 K, x2 = 0.7002 | – | 0.959
318.15 K, x2 = 0.7989 | – | 0.969
318.15 K, x2 = 0.9012 | – | 0.98
